How the values were obtained:
[1] = molecular target: T1, PRMT5 (Homo sapiens, UniProt O14744); assay: PRMT5 inhibition assay with SAM as cofactor; type: biochemical; details: against PRMT5 in the presence of SAM as cofactor
T1 construct: purchased Viva (custom protein)
Source text: (§1) The Ki values can be calculated from the IC50 values as described in the Examples section. As detailed in the Examples section, for the assay performed in the presence of SAM, IC50=Ki×1.5 (Ki=IC50/1.5). For the assay performed in the presence of MTA, IC50=Ki×13.5 (Ki=IC50/13.5). Column 6 indicates the ratio between the Ki of compounds in the presence of SAM and the Ki of compounds in the presence of MTA

[2] = molecular target: T1, PRMT5; assay: PRMT5 inhibition assay with no cofactor; type: biochemical; details: against PRMT5 with no cofactor; read-out: No Co-factor IC50
[3] = molecular target: T1, PRMT5; assay: PRMT5 inhibition assay with MTA as cofactor; type: biochemical; details: for IC50: against PRMT5 with MTA as cofactor; for SAM/MTA Ratio: ratio of Ki in the presence of SAM to Ki in the presence of MTA, Ki=IC50/1.5 (SAM), Ki=IC50/13.5 (MTA)
Source text: as §1

[4] = system: HAP1 MTAP-intact cell line; assay: SDMA in-cell western assay, HAP1 MTAP-intact; type: cell-based; details: Homo sapiens
Summary of the method: (§2)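 IC50 values come from an SDMA in-cell western run in isogenic HAP1 cells, either MTAP-null or expressing endogenous MTAP. The intact-to-deleted IC50 ratio is used to score MTAP selectivity.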

[5] = system: HAP1 MTAP-deleted cell line; assay: SDMA in-cell western assay, HAP1 MTAP-deleted; type: cell-based; details: for IC50: Homo sapiens, HAP1 MTAP-deleted (MTAP-null) cell line; for MTAP Intact/Deleted Ratio: IC50 ratio HAP1 MTAP-intact / HAP1 MTAP-deleted, >=3 fold considered MTAP-selective
Summary of the method: as §2

T1 sequence (O14744 whole entry): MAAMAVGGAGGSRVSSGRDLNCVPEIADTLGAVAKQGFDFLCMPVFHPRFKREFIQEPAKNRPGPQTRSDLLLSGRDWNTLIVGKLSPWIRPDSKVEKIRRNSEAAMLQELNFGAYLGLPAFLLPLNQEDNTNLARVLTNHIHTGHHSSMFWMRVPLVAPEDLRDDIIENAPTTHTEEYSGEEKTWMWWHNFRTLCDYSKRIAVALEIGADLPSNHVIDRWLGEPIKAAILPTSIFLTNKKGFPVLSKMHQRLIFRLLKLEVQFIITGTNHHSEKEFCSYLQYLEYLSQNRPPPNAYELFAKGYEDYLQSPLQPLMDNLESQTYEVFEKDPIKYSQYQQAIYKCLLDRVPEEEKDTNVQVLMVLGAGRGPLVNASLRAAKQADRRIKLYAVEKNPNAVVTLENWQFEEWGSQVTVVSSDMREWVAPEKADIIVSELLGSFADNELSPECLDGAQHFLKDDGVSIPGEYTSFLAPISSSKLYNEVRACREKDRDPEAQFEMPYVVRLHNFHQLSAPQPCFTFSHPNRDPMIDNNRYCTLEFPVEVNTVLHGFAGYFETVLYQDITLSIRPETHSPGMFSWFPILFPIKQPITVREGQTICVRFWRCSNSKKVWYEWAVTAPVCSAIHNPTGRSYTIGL
T1 sequence (Q9BQA1 whole entry partner): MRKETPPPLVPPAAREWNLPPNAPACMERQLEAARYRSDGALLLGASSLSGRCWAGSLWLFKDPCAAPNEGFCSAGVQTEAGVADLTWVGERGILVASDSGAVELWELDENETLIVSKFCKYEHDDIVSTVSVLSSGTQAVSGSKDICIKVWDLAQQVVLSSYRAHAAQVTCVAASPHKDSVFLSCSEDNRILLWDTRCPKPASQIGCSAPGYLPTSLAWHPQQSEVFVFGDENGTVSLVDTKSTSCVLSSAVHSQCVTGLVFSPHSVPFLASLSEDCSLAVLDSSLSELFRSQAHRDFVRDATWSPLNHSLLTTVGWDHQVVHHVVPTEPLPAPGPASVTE

| IC50 [1] | IC50 [2] | IC50 [3] | IC50 [4] | IC50 [5] | Compound | SAM/MTA Ratio [3] | MTAP Intact/Deleted Ratio [5] |
| --- | --- | --- | --- | --- | --- | --- | --- |
| 50 to 500 nM | ≥ 5000 nM | 50 to 500 nM | ≥ 10000 nM | 1000 to 10000 nM | Cc1ncoc1COc1ccc2c(c1)CN[C@H]([C@H](O)CNC(=O)c1cccc(-c3ccccn3)c1)C2 [Compound 25, N—((R)-2-hydroxy-2-((S)-7-((4-methyloxazol-5-yl)methoxy)-1,2,3,4-tetrahydroisoquinolin-3-yl)ethyl)-3-(pyridin-2-yl)benzamide] | A (a Ki ratio greater than or equal to 10 fold between the Ki in the presence of SAM and the Ki in the presence of MTA) | C* (an IC50 ratio of less than 3 fold between the IC50 in the HAP1 MTAP-intact cell line and the HAP1 MTAP-deleted cell line) |
| 50 to 500 nM | 50 to 500 nM | < 50 nM | < 1000 nM | < 1000 nM | COc1cc(C(=O)NC[C@@H](O)[C@@H]2Cc3ccc(OCc4ocnc4C)cc3CN2)cc(NC2CCC2)n1 [Compound 26, 2-(cyclobutylamino)-N—((R)-2-hydroxy-2-((S)-7-((4-methyloxazol-5-yl)methoxy)-1,2,3,4-tetrahydroisoquinolin-3-yl)ethyl)-6-methoxyisonicotinamide] | A (a Ki ratio greater than or equal to 10 fold between the Ki in the presence of SAM and the Ki in the presence of MTA) | C* (an IC50 ratio of less than 3 fold between the IC50 in the HAP1 MTAP-intact cell line and the HAP1 MTAP-deleted cell line) |
| 50 to 500 nM | 500 to 5000 nM | 50 to 500 nM | 1000 to 10000 nM | < 1000 nM | Cc1ncoc1COc1ccc2c(c1)CN[C@H]([C@H](O)CNC(=O)c1cc(NC3CCC3)ncc1F)C2 [Compound 27, 2-(cyclobutylamino)-5-fluoro-N—((R)-2-hydroxy-2-((S)-7-((4-methyloxazol-5-yl)methoxy)-1,2,3,4-tetrahydroisoquinolin-3-yl)ethyl)isonicotinamide] | A (a Ki ratio greater than or equal to 10 fold between the Ki in the presence of SAM and the Ki in the presence of MTA) | A* (an IC50 ratio greater than or equal to 10 fold between the IC50 in the HAP1 MTAP-intact cell line and the HAP1 MTAP-deleted cell line) |
| 50 to 500 nM | 50 to 500 nM | < 50 nM | 1000 to 10000 nM | < 1000 nM | Cc1ncoc1COc1ccc2c(c1)CN[C@H]([C@H](O)CNC(=O)c1cccc(NC3CCC3)c1)C2 [Compound 28, 3-(cyclobutylamino)-N—((R)-2-hydroxy-2-((S)-7-((4-methyloxazol-5-yl)methoxy)-1,2,3,4-tetrahydroisoquinolin-3-yl)ethyl)benzamide] | A (a Ki ratio greater than or equal to 10 fold between the Ki in the presence of SAM and the Ki in the presence of MTA) | A* (an IC50 ratio greater than or equal to 10 fold between the IC50 in the HAP1 MTAP-intact cell line and the HAP1 MTAP-deleted cell line) |
| 50 to 500 nM | 50 to 500 nM | < 50 nM | 1000 to 10000 nM | < 1000 nM | CC(=O)N1CCN(c2cc(C(=O)NC[C@@H](O)[C@@H]3Cc4ccc(OCc5ocnc5C)cc4CN3)cc(NC3CCC3)n2)CC1 [Compound 29, 2-(4-acetylpiperazin-1-yl)-6-(cyclobutylamino)-N—((R)-2-hydroxy-2-((S)-7-((4-methyloxazol-5-yl)methoxy)-1,2,3,4-tetrahydroisoquinolin-3-yl)ethyl)isonicotinamide] | A (a Ki ratio greater than or equal to 10 fold between the Ki in the presence of SAM and the Ki in the presence of MTA) | A* (an IC50 ratio greater than or equal to 10 fold between the IC50 in the HAP1 MTAP-intact cell line and the HAP1 MTAP-deleted cell line) |
| 50 to 500 nM | 50 to 500 nM | < 50 nM | ≥ 10000 nM | ≥ 10000 nM | Cc1ncoc1COc1ccc2c(c1)CN[C@H]([C@H](O)CNC(=O)c1cc(NC3CCC3)nc(N3CCN(C(C)C)CC3)c1)C2 [Compound 30, 2-(cyclobutylamino)-N—((R)-2-hydroxy-2-((S)-7-((4-methyloxazol-5-yl)methoxy)-1,2,3,4-tetrahydroisoquinolin-3-yl)ethyl)-6-(4-isopropylpiperazin-1-yl)isonicotinamide] | A (a Ki ratio greater than or equal to 10 fold between the Ki in the presence of SAM and the Ki in the presence of MTA) | C* (an IC50 ratio of less than 3 fold between the IC50 in the HAP1 MTAP-intact cell line and the HAP1 MTAP-deleted cell line) |
| 50 to 500 nM | 50 to 500 nM | 50 to 500 nM | < 1000 nM | < 1000 nM | Cc1ncoc1COc1ccc2c(c1)CN[C@H]([C@H](O)CNC(=O)c1cc(NC3CCC3)nc(N3CCCCC3)c1)C2 [Compound 31, 2-(cyclobutylamino)-N—((R)-2-hydroxy-2-((S)-7-((4-methyloxazol-5-yl)methoxy)-1,2,3,4-tetrahydroisoquinolin-3-yl)ethyl)-6-(piperidin-1-yl)isonicotinamide] | A (a Ki ratio greater than or equal to 10 fold between the Ki in the presence of SAM and the Ki in the presence of MTA) | C* (an IC50 ratio of less than 3 fold between the IC50 in the HAP1 MTAP-intact cell line and the HAP1 MTAP-deleted cell line) |
| 50 to 500 nM | 500 to 5000 nM | < 50 nM | 1000 to 10000 nM | < 1000 nM | Cc1ncoc1COc1ccc2c(c1)CN[C@H]([C@H](O)CNC(=O)c1cc(NC3CCC3)ncn1)C2 [Compound 32, 6-(cyclobutylamino)-N—((R)-2-hydroxy-2-((S)-7-((4-methyloxazol-5-yl)methoxy)-1,2,3,4-tetrahydroisoquinolin-3-yl)ethyl)pyrimidine-4-carboxamide] | A (a Ki ratio greater than or equal to 10 fold between the Ki in the presence of SAM and the Ki in the presence of MTA) | B* (an IC50 ratio greater than or equal to 3 fold but lower than 10 fold between the IC50 in the HAP1 MTAP-intact cell line and the HAP1 MTAP-deleted cell line) |
| 50 to 500 nM | 50 to 500 nM | 50 to 500 nM | 1000 to 10000 nM | < 1000 nM | COCCN(C)c1cc(C(=O)NC[C@@H](O)[C@@H]2Cc3ccc(OCc4ocnc4C)cc3CN2)cc(NC2CCC2)n1 [Compound 33, 2-(cyclobutylamino)-N—((R)-2-hydroxy-2-((S)-7-((4-methyloxazol-5-yl)methoxy)-1,2,3,4-tetrahydroisoquinolin-3-yl)ethyl)-6-((2-methoxyethyl)(methyl)amino)isonicotinamide] | A (a Ki ratio greater than or equal to 10 fold between the Ki in the presence of SAM and the Ki in the presence of MTA) | B* (an IC50 ratio greater than or equal to 3 fold but lower than 10 fold between the IC50 in the HAP1 MTAP-intact cell line and the HAP1 MTAP-deleted cell line) |
| 50 to 500 nM | 50 to 500 nM | < 50 nM | ≥ 10000 nM | 1000 to 10000 nM | Cc1ncoc1COc1ccc2c(c1)CN[C@H]([C@H](O)CNC(=O)c1ccnc(Nc3cccnc3)c1)C2 [Compound 34, N—((R)-2-hydroxy-2-((S)-7-((4-methyloxazol-5-yl)methoxy)-1,2,3,4-tetrahydroisoquinolin-3-yl)ethyl)-2-(pyridin-3-ylamino)isonicotinamide] | A (a Ki ratio greater than or equal to 10 fold between the Ki in the presence of SAM and the Ki in the presence of MTA) | B* (an IC50 ratio greater than or equal to 3 fold but lower than 10 fold between the IC50 in the HAP1 MTAP-intact cell line and the HAP1 MTAP-deleted cell line) |
| 50 to 500 nM | 500 to 5000 nM | < 50 nM | 1000 to 10000 nM | < 1000 nM | Cc1ncoc1COc1ccc2c(c1)CN[C@H]([C@H](O)CNC(=O)c1cc(NC3CCC3)ccn1)C2 [Compound 35, 4-(cyclobutylamino)-N—((R)-2-hydroxy-2-((S)-7-((4-methyloxazol-5-yl)methoxy)-1,2,3,4-tetrahydroisoquinolin-3-yl)ethyl)picolinamide] | A (a Ki ratio greater than or equal to 10 fold between the Ki in the presence of SAM and the Ki in the presence of MTA) | A* (an IC50 ratio greater than or equal to 10 fold between the IC50 in the HAP1 MTAP-intact cell line and the HAP1 MTAP-deleted cell line) |
| 50 to 500 nM | 500 to 5000 nM | < 50 nM | 1000 to 10000 nM | < 1000 nM | COc1cnc(NC2CCC2)cc1C(=O)NC[C@@H](O)[C@@H]1Cc2ccc(OCc3ocnc3C)cc2CN1 [Compound 36, 2-(cyclobutylamino)-N—((R)-2-hydroxy-2-((S)-7-((4-methyloxazol-5-yl)methoxy)-1,2,3,4-tetrahydroisoquinolin-3-yl)ethyl)-5-methoxyisonicotinamide] | A (a Ki ratio greater than or equal to 10 fold between the Ki in the presence of SAM and the Ki in the presence of MTA) | B* (an IC50 ratio greater than or equal to 3 fold but lower than 10 fold between the IC50 in the HAP1 MTAP-intact cell line and the HAP1 MTAP-deleted cell line) |

From patent publication US12403137B2, “Compounds and methods of use” (Tango Therapeutics, Inc., priority 2019, dated 2025)
